From patent US7803768B2, “Method for treatment of hyperglycemia in a subject in need thereof” (Kyoto University, priority 2005, dated 2010)
Where no end group is shown, it is not given here. [ ]: non-standard residue; d: D form. The star is where a group is joined. Octanoyl = CCCCCCCC(=O)*

Columns and labels:
[1] = tested on: n0-STZ model; experiment: n0-STZ model: neonatal streptozotocin-treated rats given rat ghrelin (Example 1); type: in vivo, Sprague Dawley rats; details: for Plasma Insulin: 100 μg/kg s.c. twice a day, 2nd to 8th day after birth, mean ± SE
Description: Female or male Sprague Dawley rats, purchased from Charles River were, were allowed free access to tap water and a standard pellet rat diet (352 kcal/100 g, CE-2, CLEA). Females were caged with a male for one night, and pregnancy was detected by abdominal palpation 14 days later. Natural birth occurred 22 days after mating. We examined three experimental groups as follows: a control group (Sprague Dawley rats) wherein newborn rats received a single intraperitoneal injection of citrate buffer; an n0-STZ group wherein rats received a single intraperitoneal injection of streptozotocin (STZ); and an n0-STZ/ghrelin group wherein rats received a single intraperitoneal injection of streptozotocin, and then received rat-derived ghrelin (hereafter reffered to as rat ghrelin, sequence No. 3, 100 μg/kg body weight) by subcutaneous injection twice a day on the 2nd to 8th day after birth for 7 days.
Streptozotocin (Sigma, 100 mg/kg body weight) was dissolved in citrate buffer (0.05 mmol/L, pH4.5) and immediately injected intraperitoneally once into a rat immediately after birth. Pups were left with their mothers. Each neonatal rat was checked for urinary sugar on the 2nd day with Multistix SG (Bayer Medical). Only rats that were glycosuric (3+ value with Multistix SG test) at day 2 after birth were included in the n0-STZ model group. Animals were killed at 21 or 70 days by bleeding under anesthesia with intraperitoneal injection of pentobarbital sodium (50 mg/kg).
After excision, pancreases were removed and weighed. To measure insulin content, pancreases (35-50 mg) were homogenized and centrifuged in 5 ml of acid-ethanol (0.15 M HCl 75% (v/v)-ethanol solution), and the supernatants were kept at −80° C. For immunohistochemistry, additional pancreases were fixed in 4% paraformaldehyde fixative for 24 hours, and embedded in paraffin.
Insulin and pdx-1 were detected immunohistochemically on 3 μm-thick tissue sections using an indirect peroxidase-labeling technique. Each section was incubated with a primary antibody (guinea pig anti-porcine insulin, DACO) or (rabbit anti-mouse/rat IDX-1; CHEMICON) for 1 hour. Staining was performed by incubation with 3,3′-diaminobenzidine tetrahydrochloride (DAB) kit (DakoCytomation). Quantitative evaluations of total β cells area were performed by a computer-assisted image analysis procedure using an Olympus BX 51 microscope connected to a digital camera DP 12 and Mac SCOPE Ver2.6 software (Mitani, Fukui, Japan). β cells area and total pancreatic section area were evaluated for each stained section. A relative volume of β cells was determined by a sterological morphological method, with calculation of the ratio between the areas occupied by immunoreactive cells and those occupied by total pancreatic cells.
Total RNA was extracted from rat pancreases as previously reported (Biochem. Biophys. Res. Commun., 214, pp. 239-246, 1995). To synthesis the first-strand cDNA, the extracted products were used as templates in reactions containing RT (Invitrogen) and the target 3′ primer. An RT-PCR analysis was performed according to a method previously reported (Biochem. Biophys. Res. Commun., 214, pp. 239-246, 1995). The first strand cDNA was used in subsequent PCR analyses. In the PCR analyses, oligonucleotide primers as follows were used for each target cDNA. The identity of the PCR product was confirmed by agarose gel electrophoresis.
Realtime PCR was performed as follows. The cDNA (1 μl) was mixed with 2×PCR Master Mix (Applied Biosystems) (25 μl), sterilized distilled water (23 μl), and sense and antisense primers ([…], 0.5 μl) of insulin and Pdx-1. Forty cycles of PCR amplification were carried out using the thermal cycler system (ABI PRISM 7700, Applied Biosystems, Japan), for 15 seconds at 95° C. followed by 60 seconds at 60° C. The concentration of each mRNA product was quantified using calibration curves expressing the fluorescence intensity against the amount of standardized PCR product. […]

[2] = tested on: β cells; experiment: β cell replication, phospho-histone H3 / insulin double staining of pancreatic sections (Example 2); type: in vivo, rat; details: for Double positive cells for phospho-histone H3 and insulin: 10-week-old rats, FIG. 6, no significant difference among four groups; for Increase of double positive cells for phospho-histone H3 and insulin: 21-day-old rats, FIG. 5B
Method: Pancreatic sections that had not been used for morphological studies were used to examine β cell replication. The sections were subjected to double staining for phospho-histone H3 (Ser10) and insulin. The sections were incubated overnight with 50-fold dilution of anti-phospho-histone H3 (Ser10) antibody (Cell Signaling Technology) at 4° C. Thereafter, the sections were incubated with guinea pig anti-insulin antibody at a room temperature for 1 hour. After washing with PBS for 6 times, the sections were incubated at a room temperature for 30 minutes in a blocking solution with a secondary antibody conjugated with fluorescence (Alexa Fluor 488 and 546, Molecular Probe). After washing with PBS, sections were mounted with mounting medium containing DAPI (Vector Laboratories) and examined with confocal laser scanning microscopy (Leica Microsystems). At least 1,000β cells were counted per section.

[3] = tested on: neonatal rat STZ model; experiment: neonatal rat STZ model, human ghrelin or GHRP-2 (Examples 3 and 4); type: in vivo, Sprague Dawley rats; details: 9th week after birth; for Body weights: FIG. 7A / FIG. 8A; for Pancreas weights: FIG. 7B / FIG. 8B; for Insulin Content (Gut Side): calculated from gut-side pancreas sample; for Insulin Content (Gut Side) / Insulin Content (Spleen Side): mean ± SE; for Insulin Content (Spleen Side): calculated from spleen-side pancreas sample
Description: Sprague Dawley female pregnant rats, purchased from Charles River, were allowed free access to tap water and a standard pellet rat diet (CRF-1, Oriental Yeast Co., Ltd.), and natural deliveries were allowed. Three experimental groups as follows were set: control group wherein rats received single peritoneal injection of citrate buffer immediately after birth; STZ-vehicle group wherein rats received single peritoneal injection of STZ, and then vehicle (5% mannitol solution) was subcutaneously administered twice a day from the 2nd day after birth for 7 days; and STZ-human ghrelin group wherein rats received single peritoneal injection of STZ, and then human ghrelin (sequence No. 1, 100 μg/kg body weight) was subcutaneously injected twice a day from a 2nd day after birth for 7 days.
STZ was prepared and administered as in the example 1. Each male neonatal rat was checked for urinary sugar on the 2nd day with Pretest 3aII (Wako Pure Chemical Industries, Ltd.). Only rats that were glycosuric (3+ value with Pretest 3aII) at day 2 after birth were included in the following studies. The rats were weaned in the evening on the 20th day after birth. Blood samples were collected from tail vein while awake at 8th week (57th day) after birth to measure plasma glucose and insulin concentrations. In addition, after measuring body weight at 9th week (62nd or 63rd day) after birth, blood samples were collected from abdominal aorta under anesthesia with intraperitoneal injection of pentobarbital sodium (50 mg/kg). Whole pancreases were removed and weighed. Thereafter, the pancreases were divided into two pieces and kept for insulin content measurement. Blood samples were centrifuged immediately at 4° C. to prepare plasma samples, and kept at −80° C. until measurement of glucose and insulin concentrations. Glucose concentration was measured using a Glucose CII-test Wako (Wako Pure Chemical Industries, Ltd.), while insulin concentration was measured using a highly sensitive insulin measurement kit (Morinaga Institute of Biological Science, Inc.).
Experimental materials, experimental methods and evaluation methods were similar to those in the example 2. As a test substance, 100 μg/kg of GHRP-2 was subcutaneously administered twice a day from a 2nd day after birth for 7 days (an STZ-GHRP-2 group).

[4] = tested on: high fatty acid diet-fed mice; experiment: high fatty acid diet-fed mice with linoleic acid loading (Example 5); type: in vivo, Crj:CD1(ICR) mice
Description: Male Crj:CD1(ICR) mice (Charles River Japan) were allowed free access to tap water and a standard pellet mouse diet (CRF-1, Oriental Yeast Co., Ltd.) (with lighting hours from 21 to 9 o'clock). Normal control mice were kept in this condition (normal diet, an ND group). A high fatty acid diet group (High Fat Diet, an HFD group) was allowed to freely take a mixture of 5 g CRF-1 (powder) with 1 g linoleic acid as a high fatty acid diet from the 4th week after birth. As test substances, a vehicle (5% mannitol solution) (an HFD-vehicle group) or 300 μg/kg of human ghrelin (an HFD-ghrelin group) was administered twice a day (once a day in a holiday) for about 7 weeks from the day of the start of high fatty acid diet load. Changes in the body weights and ad lib blood sugar levels after the start of test substance administration were monitored. In addition, mice were fasted overnight on the 50th day from the start of test substance administration, and then linoleic acid (1 mL/kg, intraperitoneal administration) was acutely loaded on a next day to measure plasma glucose and plasma insulin concentrations 1 hour later. The blood sugar value was measured using Antisense II (Horiba, Ltd.), while plasma glucose concentration and insulin concentration were measured using a Glucose CII-test Wako (Wako Pure Chemical Industries, Ltd.) and a Lebis insulin kit (TMB for a mouse) (Shibayagi Co. Ltd.), respectively.

**Q.** How did the “Plasma Insulin” value ([1]; 10-week-old rats) turn out when “GSS(n-octanoyl)FLSPEHQKAQQRKESKKPPAKLQPR [rat ghrelin]” was run?
**A.** 0.93 ± 0.49 ng/mL

**Q.** What about the “Plasma Insulin” value ([1]; 21-day-old rats) of the same substance?
**A.** 0.35 ± 0.17 ng/mL

**Q.** What about the “Insulin mRNA expression levels within the pancreases” value ([1]; 21st day after birth, FIG. 1A) of the same substance?
**A.** returned to levels similar to those of the control group

**Q.** What about the “pdx-1 gene expression levels in pancreas” value ([1]; 21st day after birth, FIG. 2A) of the same substance?
**A.** recovered to the levels similar to those in the control group

**Q.** And the “Islet of Langerhans size, insulin immunostaining of pancreases” value ([1]; 21st day after birth, FIGS. 1B-E)?
**A.** larger than that of the n0-STZ group but smaller than that of the control group

**Q.** And the “Pdx-1 gene expression in pancreas” value ([1]; 70th day after birth (adult rats), FIG. 4A)?
**A.** returned to the level close to that of the control group

**Q.** What about the “Insulin mRNA expression in pancreas” value ([1]; 70th day after birth (adult stage), FIG. 3B) of the same substance?
**A.** a level similar to that of the control group

**Q.** What about the “Islet of Langerhans size, insulin immunohistochemical staining” value ([1]; 70th day after birth, FIGS. 3C-F) of the same substance?
**A.** larger than that of the n0-STZ group but smaller than that of the control group

**Q.** And the “Double positive cells for phospho-histone H3 and insulin” value ([2]; STZ model)?
**A.** tendency for double positive cells for phospho-histone H3 and insulin to increase

**Q.** And the “Double positive cells for phospho-histone H3 and insulin” value ([2]; control group (no STZ))?
**A.** tended to decrease

**Q.** What about the “Increase of double positive cells for phospho-histone H3 and insulin” value ([2]; ghrelin group as compared to control rats) of the same substance?
**A.** approximately 1.7 fold

**Q.** What about the “Increase of double positive cells for phospho-histone H3 and insulin” value ([2]; n0-STZ/ghrelin group as compared to n0-STZ rats) of the same substance?
**A.** ~15 fold

**Q.** Which results are given for “GSS(n-octanoyl)FLSPEHQRVQQRKESKKPPAKLQPR (GSS(Octanoyl)FLSPEHQRVQQRKESKKPPAKLQPR; listed as Homo Sapiens) [human ghrelin]”?
**A.** Insulin contents in pancreases relative to the STZ-vehicle group [3]: about twice as high as those of the STZ-vehicle group; Body weights [3]: comparable to those of the control group; Pancreas weights [3]: significantly greater than those of the STZ-vehicle group; Insulin Content (Gut Side) [3]: 63.0 ± 6.7 μg/pancreas; Insulin Content (Spleen Side) [3]: 120.9 ± 14.1 μg/pancreas; ad lib blood sugar levels ([4]; 43rd day of high fatty acid diet and 300 μg/kg s.c. administration, FIG. 9B): tended to decrease as compared to the HFD-vehicle group; Plasma glucose concentrations after linoleic acid loading ([4]; 1 hour after 1 mL/kg linoleic acid i.p., FIG. 10B): tended to be low as compared to the HFD-vehicle group; Plasma glucose concentrations before linoleic acid loading ([4]; after 50 days of high fatty acid diet and 300 μg/kg administration, fasted overnight, mean of 8 mice ± standard error): 141 ± 5 mg/dL; Plasma insulin concentrations after linoleic acid loading ([4]; after 50 days, fasted overnight, 1 hour after 1 mL/kg linoleic acid i.p., FIG. 10A): higher than those of the HFD-vehicle group

**Q.** With “A[dW]AW[dF]K-NH2 [GHRP-2, reference compound]” as the substance, how does the “Insulin contents in pancreases relative to the STZ-vehicle group” value [3] read?
**A.** higher than those of the STZ-vehicle group

**Q.** What about the Body weights [3] of the same substance?
**A.** not significantly different from those of the control group

**Q.** And the Pancreas weights [3]?
**A.** greater than those of the STZ-vehicle group

**Q.** What about the “Insulin Content (Gut Side)” value [3] of the same substance?
**A.** 81.7 ± 4.6 μg/pancreas

**Q.** And the “Insulin Content (Spleen Side)” value [3]?
**A.** 146.8 ± 10.9 μg/pancreas
